The subject of one test is tested cancer lines. The experiment in a line: Antiproliferative MTS assay, summary over the panel. It counts as cell-based. The settings on record: Homo sapiens; against most of the tested cancer lines. The procedure:
(§1) The cells were seeded in 96-well plates (Nunc) with 5,000 or 4,000 cells per well for the cancer cells and NHDF, respectively, and incubated under standard conditions at 37 °C overnight. The culture media were then changed for freshly prepared solutions of the tested compounds in various concentrations. After 72-h incubation the antiproliferative assay was carried out as follows: the solutions of the compounds were changed in each well to 100 µL DMEM without phenol red and 20 µL of CellTiter 96 AQueous One Solution-MTS (Promega). The plates were incubated for 1 h at 37 °C, and the absorbance was then measured at 490 nm using a multi-plate reader (Synergy 4, BioTek). The experiment for each sample was repeated at least three times. The results are presented as the half-maximal inhibitory concentration (IC50) values, which were estimated in comparison to untreated cells (control) and calculated using GraphPad Prism v.8.0 (USA).
However, the antiproliferative activity of derivative 13 with furan a ring was surprising. […] For this purpose, we selected two pancreatic cancer cell lines: AsPC-1, which is characterised by a deletion of the p53 protein[20] and PANC-1, which carries an R273H mutation. […] In light of the above-mentioned facts, we also determined the cytotoxicity of the GLUT inhibitor BAY-876, which is based on a quinoline scaffold. […]

A further test relates to NHDF. Briefly: Monolayer MTS cytotoxicity against normal cells. It counts as cell-based. Particulars: NHDF, normal human dermal fibroblasts, 72-h incubation.
Source text: The human colon carcinoma cell line HCT 116 with wild-type p53 (p53^+/+) and the human glioblastoma cell line U-251 were obtained from ATCC, while the HCT 116 with a p53 deletion (p53^−/−) was kindly provided by Prof. M. Rusin from the Maria Sklodowska-Curie Memorial Cancer Center and Institute of Oncology in Gliwice, Poland. The human chronic myelogenous leukaemia cell line K562 and the normal human cell dermal fibroblast cell line NHDF were purchased from Sigma-Aldrich and PromoCell, respectively. Both the HCT 116 and U-251 cell lines were cultured in Dulbecco’s modified Eagle’s medium (DMEM) supplemented with 10% inactivated foetal bovine serum (FBS). The DMEM for the NHDF contained 15% non-inactivated FBS. K562 cells were cultured in RPMI medium completed by 10% inactivated FBS. Additionally, the media were supplemented with antibiotics (streptomycin and penicillin – 1% v/v; Sigma-Aldrich). The cell culture was conducted in 75 cm^2 flasks (Nunc) under standard conditions (37 °C, 5% CO2 humidified atmosphere). Furthermore, the cell lines were frequently tested for mycoplasma using the qRT-PCR technique with specific Mycoplasma primers to confirm the lack of contamination.
as §1, with “times.” for “times. The results are presented as the half-maximal inhibitory concentration (IC50) values, which were estimated in comparison to untreated cells (control) and calculated using GraphPad Prism v.8.0 (USA).”
Additionally, the compounds were also tested for their cytotoxicity against normal cells – human dermal fibroblasts (NHDF).

A further test has as its system p21. Briefly: Western blot, p21 protein level. The settings on record: HCT 116 p53+/+, 0.5 and 1 µM, 24 and 48-h. It counts as cell-based, human. On the procedure: The cells (500,000) were seeded in 35 mm Petri dishes (Nunc) and incubated in a solution of the tested compound (0.5 µM and 1 µM) for 24 h and 48 h. The cells were then dissociated using trypsin, collected in Eppendorf tubes, and centrifuged at 2,000 rpm. Next, cell pellets were resuspended in complete RIPA buffer containing a Halt Protease Inhibitor Cocktail and Halt Phosphatase Inhibitor Cocktail along with 0.5 M EDTA (all reagents from Thermo Fisher Scientific) and lysed on ice for 20 min. Afterward, the lysates were sonicated and centrifuged at 10,000 rpm for 10 min at 4 °C. The obtained supernatants were collected for further analysis. The protein concentration was determined using a Micro BCA™ Protein Assay Kit (Thermo Fisher Scientific) according to the manufacturer’s procedure. Equal amounts of proteins (16 µg) were electrophoresed on SDS-Page gels and transferred onto nitrocellulose membranes. Novex Sharp Pre-Stained Protein Standard (Thermo Fisher Scientific) was used as a colored molecular weight marker. […]
The overexpression of p21 also causes cell cycle inhibition via its binding to the […]. […] The cell cycle in the U-251 cell line was inhibited precisely in the S-phase, and it is, therefore, likely that the p21 protein expression was not detected in the glioma cells tested (data not shown).
For orientation: A western blot detects proteins with antibodies after separation by electrophoresis.

Each structure is given as a SMILES string.

What is called IC50 is the concentration needed to halve the response being measured. On to `O=[N+]([O-])c1ccc(/C=C/c2ccnc3ccccc23)o1` [Compound 13], for which the IC50 in the test with tested cancer lines was less than 100 nM; with NHDF it was 649 ± 60 nM. Also, in the test on p21, the “p21 protein expression vs control” value is “more than two-fold increase”.
